Test results taken from US8710233B2 (Gruenenthal GmbH, priority 2005, dated 2014).
Read-outs that look alike come from different tables or passages of the source.

Legend:
[1] = test system: capsaicin induced hypothermie; assay: Hypothermie assay in the mouse (capsaicin induced hypothermie); assay type: in vivo; conditions: mouse, read-out: inhibition hypothermie (n = 5); for inhibition in vivo at 0.3 mg/kg: 0.3 mg/kg body weight po; for inhibition in vivo at 1 mg/kg: 1 mg/kg body weight po; for inhibition in vivo at 0.1 mg/kg: 0.1 mg/kg body weight po
Procedure: V. Hypothermie Assay an der Maus
Male NMRI mice (weight 25-35 gram, supplier IFFA CREDO, Bruxelles, Belgium) are used in the hypothermie assay. The animals are kept under standardized conditions: light/darkness interval (6:00 to 18:00 light; 18:00 to 6:00 Uhr darkness), room temperature 19-22° C., relative humidity 35-70%, 15 times per hour change of compartment air, airflow <0.2 m/sec. The animals were fed on a standardized diet (ssniff diet, ssniff Spezialdiäten GmbH, Soest, Germany) and tap water. Water and diet were detracted during the experiment. All animals were used once in the experiment. The animals were allowed to adapt to the experimental conditions for at least 5 days.
The acute application of capsaicin (VR-1 agonist) leads to a decrease of the core body temperature in rat and mice via stimulation of heat sensors. Only compounds which act as specific VR-1-receptor antagonists can antagonize the capsaicin induced hypothermie. In contrast, morphine induced hypothermie is not antagonized by VR-1 antagonists. Thus, this experiment is suitable for the determination of compounds that act as VR1-antagonists via their effect on the core body temperature.
For the determination of the core body temperature a digital thermometer was used (Thermalert TH-5, physitemp, Clifton N.J., USA). The measuring head was inserted into the rectum.
The individual basis value is determined by measuring the body temperature twice in an interval of about half an hour. […] […] The test compound is given 10 min (i.v.) or 15 min (p.o.), respectively, before application of capsaicin. The body temperature is determined 7.5/15 and 30 min after application of capsaicin (i.v.+i.p.) or 15/30/60/90/120 min after application of capsaicin (p.o.+i.p.), respectively. In addition, another group of mice is only given the test compound or a vehicle control.
The measuring points are given as average values±S.E.M. of the absolute values. The antagonistic effect is given in percent of inhibition of capsaicin induced hypothermie.

[2] = molecular target: T1, vanilloid receptor 1 (VR1/TRPV1) of the rat species (Rattus norvegicus, UniProt O35433); assay: FLIPR Ca2+ influx assay on rat dorsal root ganglia cells (pharmacological method I); assay type: cell-based; conditions: table 4, capsaicin
T1 construct: The spinal column is removed from decapitated rats; from tissue; host or cells: primary cells dissociated from rat dorsal root ganglia
T1 sequence (O35433 whole entry): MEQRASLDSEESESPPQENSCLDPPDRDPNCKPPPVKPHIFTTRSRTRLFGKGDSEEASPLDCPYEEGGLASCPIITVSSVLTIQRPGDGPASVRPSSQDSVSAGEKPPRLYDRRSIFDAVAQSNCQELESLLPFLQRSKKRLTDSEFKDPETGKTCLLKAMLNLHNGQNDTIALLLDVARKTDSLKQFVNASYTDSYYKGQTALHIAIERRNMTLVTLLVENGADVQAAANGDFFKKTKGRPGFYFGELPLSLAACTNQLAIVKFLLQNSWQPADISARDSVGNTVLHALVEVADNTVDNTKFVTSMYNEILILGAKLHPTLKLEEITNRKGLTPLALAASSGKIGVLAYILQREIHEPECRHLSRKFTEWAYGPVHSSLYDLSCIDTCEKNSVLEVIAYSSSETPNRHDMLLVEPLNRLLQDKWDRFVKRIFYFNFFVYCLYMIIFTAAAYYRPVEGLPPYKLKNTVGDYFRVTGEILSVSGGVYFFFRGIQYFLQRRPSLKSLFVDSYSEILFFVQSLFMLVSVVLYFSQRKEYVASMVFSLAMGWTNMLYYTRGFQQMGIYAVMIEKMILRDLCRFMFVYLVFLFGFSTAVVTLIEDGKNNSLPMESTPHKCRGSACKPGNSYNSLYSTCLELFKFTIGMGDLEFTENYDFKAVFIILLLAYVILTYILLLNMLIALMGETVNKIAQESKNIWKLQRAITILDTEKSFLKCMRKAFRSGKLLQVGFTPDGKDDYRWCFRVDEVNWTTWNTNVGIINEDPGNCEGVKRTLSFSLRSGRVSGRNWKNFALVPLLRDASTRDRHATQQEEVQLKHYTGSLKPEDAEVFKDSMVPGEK
Summary of the method: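 Primary rat dorsal root ganglion cells loaded with 2 μM Fluo-4, Ca2+ influx read on FLIPR as peak fluorescence. Triplicates, at least 3 independent experiments.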

[3] = molecular target: T2, vanilloid receptor (VR1) (Homo sapiens, UniProt Q8NER1); assay: FLIPR Ca2+ influx assay on CHO K1 cells transfected with the VR1 gene (pharmacological method II); assay type: cell-based; conditions: table 4; capsaicin; read-out: Ki (human) Cap.
T2 construct: expressed in transfected cells; host or cells: CHO K1 cells (ECACC), stably transfected
T2 sequence (Q8NER1 whole entry): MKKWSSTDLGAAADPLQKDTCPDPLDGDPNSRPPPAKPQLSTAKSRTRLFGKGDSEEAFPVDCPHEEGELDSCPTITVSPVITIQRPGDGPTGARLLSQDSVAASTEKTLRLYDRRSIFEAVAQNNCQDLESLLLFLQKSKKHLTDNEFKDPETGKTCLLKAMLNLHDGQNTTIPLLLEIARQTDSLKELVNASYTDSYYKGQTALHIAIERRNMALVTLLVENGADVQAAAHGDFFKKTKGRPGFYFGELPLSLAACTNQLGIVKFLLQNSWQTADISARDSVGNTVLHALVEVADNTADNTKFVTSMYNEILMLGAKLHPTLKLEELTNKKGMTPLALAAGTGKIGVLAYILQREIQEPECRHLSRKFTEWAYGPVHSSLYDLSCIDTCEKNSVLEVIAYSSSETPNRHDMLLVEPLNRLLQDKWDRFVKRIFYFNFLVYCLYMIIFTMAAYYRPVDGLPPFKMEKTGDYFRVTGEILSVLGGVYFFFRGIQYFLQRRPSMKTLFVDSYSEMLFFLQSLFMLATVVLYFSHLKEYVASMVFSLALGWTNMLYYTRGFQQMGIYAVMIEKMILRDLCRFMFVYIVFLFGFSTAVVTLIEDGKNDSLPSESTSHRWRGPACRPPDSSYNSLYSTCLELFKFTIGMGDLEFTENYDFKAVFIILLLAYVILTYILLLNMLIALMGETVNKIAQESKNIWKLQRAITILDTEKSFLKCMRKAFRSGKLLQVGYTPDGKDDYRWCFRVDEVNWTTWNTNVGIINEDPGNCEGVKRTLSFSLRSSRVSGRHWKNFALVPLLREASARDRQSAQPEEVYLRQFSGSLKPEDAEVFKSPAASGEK

[4] = molecular target: VR1/TRPV1 receptor (Homo sapiens, UniProt Q8NER1); assay: IC50 (human) after pH stimulus; assay type: cell-based; conditions: for IC50: table 4; for inhibition in percent, IC50 (human) after pH stimulus: @ 1 μM, ne = no effect
Sequence of VR1/TRPV1 receptor (Q8NER1 whole entry): as above

SMILES	Ki ([2]; read-out: Ki (rat) Cap.)	Ki [3]	IC50 [4]	inhibition in vivo at 0.3 mg/kg [1]	further results
CC(C(=O)NCc1ccc(C(F)(F)F)nc1OCc1ccccc1)c1ccc(NS(C)(=O)=O)c(F)c1 (stereo not drawn) [Compound 106]				21%	inhibition in vivo at 1 mg/kg [1]: 22%; inhibition in vivo at 10 mg/kg ([1]; 10 mg/kg body weight po): 84%
CC(C(=O)NCc1ccc(C(F)(F)F)nc1N1CCC(Nc2ccccc2)CC1)c1ccc(NS(C)(=O)=O)c(F)c1 (stereo not drawn) [Compound 290]				78%	inhibition in vivo at 1 mg/kg [1]: 68%
CCCN(CCC)c1nc(C(F)(F)F)ccc1CNC(=O)C(C)c1ccc(NS(C)(=O)=O)c(F)c1 (stereo not drawn) [Example 16, N-((2-(dipropylamino)-6-(trifluoromethyl)pyridin-3-yl)methyl)-2-(3-fluoro-4-(methylsulfonamido)phenyl)propanamide]	0.8 nM	0.2 nM	14.7 nM	12%	
C[C@@H](C(=O)NCc1ccc(C(F)(F)F)cc1N1CCCCC1)c1ccc(NS(C)(=O)=O)c(F)c1 [Example 32, (R)-2-(3-fluoro-4-(methylsulfonamido)phenyl)-N-(2-(piperidin-1-yl)-4-(trifluoromethyl)benzyl)propanamide]	2.6 nM	1.7 nM	135 nM	55%	
CC(C(=O)NCc1ccc(C(F)(F)F)nc1N1CCCCCC1)c1ccc(NS(C)(=O)=O)c(F)c1 (stereo not drawn) [Example 81, N-(2-azepan-1-yl-6-trifluoromethyl-pyridin-3-ylmethyl)-2-(3-fluoro-4-methylsulfonamido-phenyl)-propionamide]	2.4 nM			21%	
CC(C(=O)NCc1ccc(C(F)(F)F)nc1-n1ccnc1)c1ccc(NS(C)(=O)=O)c(F)c1 (stereo not drawn) [Example 87, 2-(3-fluoro-4-methylsulfonamido-phenyl)-N-((6-(trifluoromethyl)-2-(1H-imidazol-1-yl)pyridin-3-yl)methyl)-propionamide]	143 nM		2570 nM	0%	
CC(C(=O)NCc1ccc(C(F)(F)F)nc1-c1ccc(F)cc1)c1ccc(NS(C)(=O)=O)c(F)c1 (stereo not drawn) [Example 89]	1.2 nM	0.4 nM	131 nM	1%	
CCCCCCOc1nc(C(F)(F)F)ccc1CNC(=O)[C@@H](C)c1ccc(NS(C)(=O)=O)c(F)c1 [Example 93, (S)-2-(3-fluoro-4-methylsulfonamido-phenyl)-N-(2-hexyloxy-6-trifluoromethyl-pyridin-3-ylmethyl)-propionamide]		0.4 nM	12.3 nM	4%	Ki ([2]; Ki (rat) Cap.): 0.2 nM
CCCCCCOc1nc(C(F)(F)F)ccc1CNC(=O)[C@H](C)c1ccc(NS(C)(=O)=O)c(F)c1 [Example 94, (R)-2-(3-fluoro-4-methylsulfonamido-phenyl)-N-(2-hexyloxy-6-trifluoromethyl-pyridin-3-ylmethyl)-propionamide]				0%	
CC(C)COc1cc(C(F)(F)F)ccc1CNC(=O)[C@H](C)c1ccc(NS(C)(=O)=O)c(F)c1 [Example 99, (R)-2-(3-fluoro-4-methylsulfonamido-phenyl)-N-(2-isobutoxy-4-trifluoromethyl-benzyl)-propionamide]		5.8 nM	419 nM	1%	
CC(C(=O)NCc1ccc(C(F)(F)F)nc1OCC1CC1)c1ccc(NS(C)(=O)=O)c(F)c1 (stereo not drawn) [Example 100, N-(2-cyclopropylmethoxy-6-trifluoromethyl-pyridin-3-ylmethyl)-2-(3-fluoro-4-methylsulfonamido-phenyl)-propionamide]		1.1 nM	115 nM	26%	Ki ([2]; Ki (rat) Cap.): 1.2 nM
CC(C(=O)NCc1ccc(C(F)(F)F)nc1OCc1ccccc1)c1ccc(NS(C)(=O)=O)c(F)c1 (stereo not drawn) [Example 106, N-(2-benzyloxy-6-trifluoromethyl-pyridin-3-ylmethyl)-2-(3-fluoro-4-methylsulfonamido-phenyl)-propionamide]		0.5 nM	18.6 nM		inhibition in vivo at 0.1 mg/kg [1]: 24%
COc1cccc(COc2nc(C(F)(F)F)ccc2CNC(=O)C(C)c2ccc(NS(C)(=O)=O)c(F)c2)c1 (stereo not drawn) [Example 107, 2-(3-fluoro-4-methylsulfonamido-phenyl)-N-[2-(3-methoxy-benzyloxy)-6-trifluoromethyl-pyridin-3-ylmethyl]-propionamide]		0.8 nM	43.7 nM	21%	Ki ([2]; Ki (rat) Cap.): 1 nM
CC(C)CCOc1nc(C(F)(F)F)ccc1CNC(=O)C(C)c1ccc(NS(C)(=O)=O)c(F)c1 (stereo not drawn) [Example 123, 2-(3-fluoro-4-methylsulfonamido-phenyl)-N-[2-(3-methyl-butoxy)-6-trifluoromethyl-pyridin-3-ylmethyl]-propionamide]	0.6 nM	0.8 nM	15.1 nM	47%	

Continued, in another order:

Ki ([2]; read-out: Ki (rat) Cap.)	Ki [3]	IC50 [4]	SMILES	inhibition in vivo at 0.3 mg/kg [1]	further results
63.1 nM	59.6 nM	1400 nM	CC(C(=O)NCc1ccc(C(F)(F)F)nc1Nc1ccccc1)c1ccc(NS(C)(=O)=O)c(F)c1 (stereo not drawn) [Example 110, 2-(3-fluoro-4-methylsulfonamido-phenyl)-N-(2-phenylamino-6-trifluoromethyl-pyridin-3-ylmethyl)-propionamide]	13%	
5.8 nM	13.2 nM		C[C@@H](C(=O)NCc1ccc(C(F)(F)F)nc1-c1ccc(F)c(Cl)c1)c1ccc(NS(C)(=O)=O)c(F)c1 [Example 121, (R)-N-[2-(3-chloro-4-fluoro-phenyl)-6-trifluoromethyl-pyridin-3-ylmethyl]-2-(3-fluoro-4-methylsulfonamido-phenyl)-propionamide]	12%	inhibition at 10 µM ([4]; @ 10 μM, read-out: inhibition in percent, IC50 (human) after pH stimulus): 56%
0.6 nM	0.7 nM	40.4 nM	CCCCSc1nc(C(F)(F)F)ccc1CNC(=O)C(C)c1ccc(NS(C)(=O)=O)c(F)c1 (stereo not drawn) [Example 122]	33%	
0.4 nM	0.3 nM	5.1 nM	CC(C(=O)NCc1ccc(C(F)(F)F)nc1OCC1CC1C)c1ccc(NS(C)(=O)=O)c(F)c1 (stereo not drawn) [Example 124, 2-(3-fluoro-4-methylsulfonamido-phenyl)-N-[2-(2-methyl-cyclopropylmethoxy)-6-trifluoromethyl-pyridin-3-ylmethyl]-propionamide]	39%	
0.7 nM		14.7 nM	CC(C(=O)NCc1ccc(C(F)(F)Cl)nc1N1CCCCCC1)c1ccc(NS(C)(=O)=O)c(F)c1 (stereo not drawn) [Example 132, N-[2-azepan-1-yl-6-(chloro-difluoro-methyl)-pyridin-3-ylmethyl]-2-(3-fluoro-4-methylsulfonamido-phenyl)-propionamide]	0%	
1.9 nM			CC(C(=O)NCc1ccc(C(F)(F)F)nc1N1CCC(c2ccccc2)CC1)c1ccc(NS(C)(=O)=O)c(F)c1 (stereo not drawn) [Example 137]	9%	
41 nM	42 nM		CC1CCN(c2nc(C(F)(F)F)ccc2CNC(=O)C(C)c2ccc(NS(=O)(=O)N(C)C)c(F)c2)CC1 (stereo not drawn) [Example 288, 2-(4-dimethylaminsulfonylamino-3-fluoro-phenyl)-N-(4-methyl-6′-trifluoromethyl-3,4,5,6-tetrahydro-2H-[1,2′]bipyridinyl-3′-ylmethyl)-propionamide]		inhibition in percent, IC50 (human) after pH stimulus [4]: ne @ 1 μM
3.3 nM	2.5 nM		COc1cc(C(C)C(=O)NCc2ccc(C(F)(F)F)nc2N2CCC(C)CC2)ccc1NS(C)(=O)=O (stereo not drawn) [Example 289, 2-(4-methylsulfonamido-3-methoxy-phenyl)-N-(4-methyl-6′-trifluoromethyl-3,4,5,6-tetrahydro-2H-[1,2′]bipyridinyl-3′-ylmethyl)-propionamide]		inhibition in percent, IC50 (human) after pH stimulus [4]: ne @ 1 μM
	4.4 nM	480 nM	CC(C(=O)NCc1ccc(C(F)(F)F)nc1N1CCC(Nc2ccccc2)CC1)c1ccc(NS(C)(=O)=O)c(F)c1 (stereo not drawn) [Example 290, 2-(3-fluoro-4-methylsulfonamido-phenyl)-N-(4-phenylamino-6′-trifluoromethyl-3,4,5,6-tetrahydro-2H-[1,2′]bipyridinyl-3′-ylmethyl)-propionamide]		inhibition in vivo at 0.1 mg/kg [1]: 24%
